Activity calls are given as the source filed them.
Key:
[1] = Luminescence Cell-Based Dose Confirmation HTS to Identify Activators of 5'UTR Stem-Loop Driven Alpha-Synuclein mRNA Translation in H4 Neuroglioblastoma Cells. [Related pubchem assays: 1829 (Project Summary), 1814 (Primary HTS)]; format: functional
[2] = Luminescence Cell-Based Dose Response HTS to Identify Activators of Luciferase Translation or Activity in H4 […] Cells. [Related pubchem assays: 1829 (Project Summary), 1814 (Primary HTS)]; format: functional
H4 = test: Luminescence Cell-Based Dose Response HTS to Identify Activators of 5'UTR Stem-Loop Driven Prion Protein mRNA Translation in H4 Neuroglioblastoma Cells. [Related pubchem assays: 1829 (Project Summary), 1814 (Primary HTS)]; format: functional; conditions: Homo sapiens
Cytochrome P450 2C19 = Cytochrome P450 2C19 (Homo sapiens, UniProt P33261); test: Cytochrome panel assay with activity outcomes. Panel member name: p450-cyp2c19 Compounds with AC50 equal or less than 10 uM are considered active; format: functional; conditions: read-out: AC50
Cytochrome P450 2D6 = Cytochrome P450 2D6 (Homo sapiens, UniProt P10635);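 further: CYP2D6 member of a cytochrome P450 panel assay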
Cytochrome P450 2C9 = Cytochrome P450 2C9 (Homo sapiens, UniProt P11712)
[3] = tested on: Streptococcus sp. 'group A'; test: growth inhibition of control SK(-) GAS strain, dose response, counter-screen for streptokinase expression inhibitor project, luminescence, kanamycin, BacTiterGlo, confirmation (AID 1900); format: functional, organism-based
Streptokinase A = target: T1, Streptokinase A (Streptococcus pyogenes serotype M1, UniProt P10520); test: S. pyogenes streptokinase expression inhibitors, potency, dose response, plasminogen activation absorbance, OD405 (AID 1914); format: functional, Streptococcus pyogenes M1 GAS;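 further: secreted streptokinase activity via plasminogen activation per viability signal from cell pellet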
T1 sequence (P10520 whole entry): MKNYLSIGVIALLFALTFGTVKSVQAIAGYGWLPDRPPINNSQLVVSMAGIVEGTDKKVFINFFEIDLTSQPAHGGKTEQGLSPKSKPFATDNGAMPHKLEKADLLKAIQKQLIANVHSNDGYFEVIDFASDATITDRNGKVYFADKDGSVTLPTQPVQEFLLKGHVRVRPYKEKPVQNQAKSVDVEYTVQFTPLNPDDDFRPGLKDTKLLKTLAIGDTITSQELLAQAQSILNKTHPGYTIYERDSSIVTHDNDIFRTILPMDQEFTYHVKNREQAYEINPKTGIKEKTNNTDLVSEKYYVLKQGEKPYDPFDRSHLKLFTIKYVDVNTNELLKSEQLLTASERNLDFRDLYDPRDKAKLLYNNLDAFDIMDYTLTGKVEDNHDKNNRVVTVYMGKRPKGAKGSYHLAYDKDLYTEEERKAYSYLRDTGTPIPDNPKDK

Streptococcus = test: Group A Streptococcus viability loss, dose response, counter-screen for streptokinase expression inhibitor project, luminescence, BacTiterGlo (AID 1915); format: functional, organism-based;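 further: potency for reduction of bacterial viability or growth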
Cytochrome P450 1A2 = target: T2, Cytochrome P450 1A2 (Homo sapiens, UniProt P05177);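 further: PubChem cytochrome P450 panel assay, CYP1A2 panel member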
T2 sequence (P05177 whole entry): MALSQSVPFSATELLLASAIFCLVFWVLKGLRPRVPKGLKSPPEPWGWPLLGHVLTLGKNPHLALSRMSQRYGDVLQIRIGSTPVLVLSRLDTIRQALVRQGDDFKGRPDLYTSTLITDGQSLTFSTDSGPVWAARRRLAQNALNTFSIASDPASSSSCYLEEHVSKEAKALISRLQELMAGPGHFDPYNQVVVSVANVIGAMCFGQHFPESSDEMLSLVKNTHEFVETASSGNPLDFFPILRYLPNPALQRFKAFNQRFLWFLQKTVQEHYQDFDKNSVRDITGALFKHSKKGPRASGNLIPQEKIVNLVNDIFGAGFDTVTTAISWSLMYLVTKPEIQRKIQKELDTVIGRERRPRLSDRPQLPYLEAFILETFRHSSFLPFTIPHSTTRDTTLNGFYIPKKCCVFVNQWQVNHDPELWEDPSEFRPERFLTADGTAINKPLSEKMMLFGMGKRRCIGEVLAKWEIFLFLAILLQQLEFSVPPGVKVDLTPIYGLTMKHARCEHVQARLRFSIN

[4] = inhibitors of intracellular T. cruzi replication, confirmation, NIH3T3 host cells, beta-gal luminescence (AID 2044); format: functional, cell-based;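 further: intracellular parasites grown in NIH/3T3 mouse fibroblasts as host cells; luminescent beta-galactosidase reporter signal from transgenic T. cruzi replicating inside host cells; inhibitors lower the luminescence signal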
[5] = cytotoxicity toward NIH3T3 fibroblasts, dose response, counter-screen, cell-based, ATP luminescence, mouse fibroblasts (AID 2010); format: functional;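 further: cells exposed to compound for about 90 hours before reading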
[6] = target: T3, Heat shock factor protein 1 (Mus musculus, UniProt P38532); test: HSF1 potentiators in luciferase reporter cells, confirmation, cell-based, NIH3T3, luminescence, dose retest (AID 435004); format: functional;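 further: stress induced by proteasome inhibitor MG132 added 30 min after compound; luciferase reporter driven by HSF1 response element in NIH3T3 cells; actives raise luminescence as potentiators of the MG132 stress response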
T3 sequence (P38532 whole entry): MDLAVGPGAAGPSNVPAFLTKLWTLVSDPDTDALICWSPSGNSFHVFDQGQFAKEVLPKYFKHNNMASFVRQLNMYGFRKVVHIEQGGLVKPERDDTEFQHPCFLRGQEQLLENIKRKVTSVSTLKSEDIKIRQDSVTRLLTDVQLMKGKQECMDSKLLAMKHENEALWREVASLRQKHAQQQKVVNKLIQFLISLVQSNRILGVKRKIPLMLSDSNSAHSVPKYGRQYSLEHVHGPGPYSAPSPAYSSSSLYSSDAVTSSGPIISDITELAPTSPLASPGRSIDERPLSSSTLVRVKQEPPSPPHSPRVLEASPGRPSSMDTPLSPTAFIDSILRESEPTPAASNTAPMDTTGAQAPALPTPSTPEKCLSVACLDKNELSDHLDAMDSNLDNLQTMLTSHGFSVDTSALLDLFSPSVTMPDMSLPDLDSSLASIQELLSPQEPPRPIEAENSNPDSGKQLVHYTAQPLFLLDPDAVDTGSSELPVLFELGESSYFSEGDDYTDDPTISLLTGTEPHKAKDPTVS

[7] = Luminescence Cell-Based Dose Retest to Confirm Inhibitors of Cancer Stem Cells. [Related pubchem assays (depositor defined):AID2717, AID2721]; format: functional; conditions: Homo sapiens
[8] = target: T3, Heat shock factor protein 1; test: inhibition of MG132-induced HSE-luciferase signal, confirmation, cell-based, NIH3T3, luminescence, dose retest (AID 2382); format: functional;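 further: NIH3T3 fibroblasts with HSF1-driven luciferase reporter stressed by proteasome inhibitor MG132; luminescence from HSF1-driven luciferase expression after 8 hours of MG132 stress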
Cytochrome P450 3A4 = Cytochrome P450 3A4 (Homo sapiens, UniProt P08684);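 further: CYP3A4 tested as one member of a cytochrome P450 panel screen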
[9] = HEp-2 cell cytotoxicity, dose response, cytotoxicity control for RSV inhibitor project, HTS (AID 2410); format: functional; conditions: human respiratory syncytial virus

Cytochrome P450 2D6, sequence (P10635 whole entry): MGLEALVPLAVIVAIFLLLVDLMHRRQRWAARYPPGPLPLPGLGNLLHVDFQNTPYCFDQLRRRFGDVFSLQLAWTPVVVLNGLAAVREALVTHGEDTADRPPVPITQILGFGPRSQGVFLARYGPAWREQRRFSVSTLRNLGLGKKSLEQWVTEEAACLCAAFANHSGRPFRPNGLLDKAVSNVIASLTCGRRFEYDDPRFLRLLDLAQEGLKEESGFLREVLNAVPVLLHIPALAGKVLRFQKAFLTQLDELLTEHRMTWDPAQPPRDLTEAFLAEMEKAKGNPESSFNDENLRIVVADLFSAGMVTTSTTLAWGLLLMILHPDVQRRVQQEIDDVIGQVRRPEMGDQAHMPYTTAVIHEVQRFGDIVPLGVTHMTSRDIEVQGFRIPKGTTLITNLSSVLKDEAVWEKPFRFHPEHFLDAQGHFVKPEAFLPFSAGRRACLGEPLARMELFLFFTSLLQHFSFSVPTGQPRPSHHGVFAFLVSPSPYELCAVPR
Cytochrome P450 3A4, sequence (P08684 whole entry): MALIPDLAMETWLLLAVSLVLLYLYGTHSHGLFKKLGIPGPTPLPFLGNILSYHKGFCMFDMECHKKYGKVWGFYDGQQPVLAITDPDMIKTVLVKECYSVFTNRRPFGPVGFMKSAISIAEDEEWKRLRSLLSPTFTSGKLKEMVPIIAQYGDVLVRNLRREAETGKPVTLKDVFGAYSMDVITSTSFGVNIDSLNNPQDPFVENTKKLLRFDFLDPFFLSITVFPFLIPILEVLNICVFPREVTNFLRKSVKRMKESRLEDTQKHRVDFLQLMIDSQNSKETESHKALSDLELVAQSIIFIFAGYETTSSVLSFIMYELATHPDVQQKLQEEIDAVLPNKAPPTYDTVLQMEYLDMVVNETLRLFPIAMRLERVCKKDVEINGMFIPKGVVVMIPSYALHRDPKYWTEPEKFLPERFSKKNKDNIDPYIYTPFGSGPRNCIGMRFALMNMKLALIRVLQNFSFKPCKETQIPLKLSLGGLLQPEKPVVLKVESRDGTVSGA
Cytochrome P450 2C9, sequence (P11712 whole entry): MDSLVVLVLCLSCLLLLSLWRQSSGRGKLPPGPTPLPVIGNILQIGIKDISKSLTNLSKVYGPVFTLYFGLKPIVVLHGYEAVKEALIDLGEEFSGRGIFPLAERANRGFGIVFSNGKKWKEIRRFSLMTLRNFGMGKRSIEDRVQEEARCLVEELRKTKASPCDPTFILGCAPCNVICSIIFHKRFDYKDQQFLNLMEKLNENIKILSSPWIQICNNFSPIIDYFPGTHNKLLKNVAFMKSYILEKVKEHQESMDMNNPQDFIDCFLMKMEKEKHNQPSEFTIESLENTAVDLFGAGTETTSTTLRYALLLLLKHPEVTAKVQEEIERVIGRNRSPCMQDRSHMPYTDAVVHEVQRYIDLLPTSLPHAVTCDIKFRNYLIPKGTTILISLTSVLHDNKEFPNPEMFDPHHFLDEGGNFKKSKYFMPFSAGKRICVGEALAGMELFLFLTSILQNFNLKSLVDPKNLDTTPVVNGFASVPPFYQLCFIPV
Cytochrome P450 2C19, sequence (P33261 whole entry): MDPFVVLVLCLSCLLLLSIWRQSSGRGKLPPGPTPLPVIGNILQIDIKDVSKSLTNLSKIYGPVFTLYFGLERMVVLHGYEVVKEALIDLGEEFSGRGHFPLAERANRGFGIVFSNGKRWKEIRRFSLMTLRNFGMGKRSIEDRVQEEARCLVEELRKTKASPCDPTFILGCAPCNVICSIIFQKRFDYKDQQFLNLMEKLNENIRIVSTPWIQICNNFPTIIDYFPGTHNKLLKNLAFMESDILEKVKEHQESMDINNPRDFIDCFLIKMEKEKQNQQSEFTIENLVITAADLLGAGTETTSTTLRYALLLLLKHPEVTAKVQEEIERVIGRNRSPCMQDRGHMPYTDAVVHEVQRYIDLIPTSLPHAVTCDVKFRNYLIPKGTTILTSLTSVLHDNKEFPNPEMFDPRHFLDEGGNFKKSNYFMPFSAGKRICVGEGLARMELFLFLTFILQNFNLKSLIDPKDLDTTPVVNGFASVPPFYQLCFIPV

Nc1nc(CSCc2ccccc2)nc(N2CCOCC2)n1
EC50 [1]: > 120 µM (not active)
EC50 [2]: 6.28 µM (active)
EC50 (H4): 50.7 µM (active)

COCCn1c(=O)c(-c2ccc(OC)cc2)nc2cnc(OC)nc21
AC50 (Cytochrome P450 2C19): 39.8 µM (inconclusive)
AC50 (Cytochrome P450 2D6): 25.1 µM (inconclusive)
AC50 (Cytochrome P450 2C9): 39.8 µM (inconclusive)

O=C(Cc1csc(NC(=O)Nc2cccc(Cl)c2)n1)NCc1cccnc1
EC50 [3]: 3.19 µM (active)
EC50 (Streptokinase A): > 150 µM (not active)
EC50 (Streptococcus): 13.7 µM (active)

O=c1c2c(-c3ccccc3)ccnc2[nH]n1-c1ccccc1
EC50 [1]: > 120 µM (not active)
EC50 [2]: 10.8 µM (active)
EC50 (H4): > 120 µM (not active)

Cc1ccc(C(=O)CSc2nc(C)cc(=O)[nH]2)cc1
AC50 (Cytochrome P450 2C19): 39.8 µM (inconclusive)
AC50 (Cytochrome P450 1A2): 31.6 µM (inconclusive)
AC50 (Cytochrome P450 2C9): 0.0282 µM (inconclusive)

Cc1cc2c3c(c1)C1(C(=O)N3C(C)(C)CC2C)C(C#N)=C(N)Oc2cc(O)ccc21 (configuration not stated)
EC50 [4]: 1.41 µM (active)
EC50 [5]: > 60 µM (not active)
EC50 [6]: 54.7 µM (active)

O=C(CSc1nc(N2CCOCC2)nc(N2CCOCC2)n1)Nc1cccc(C(F)(F)F)c1
EC50 [3]: > 150 µM (not active)
EC50 (Streptokinase A): > 150 µM (not active)
EC50 (Streptococcus): > 150 µM (not active)

O=C(Nc1ccccc1)C1=C[C@@H](c2csc3ccccc23)C[C@@H](OCc2ccc(CO)cc2)O1
AC50 [7]: 2.65 µM (active)

Cc1ccc(OC(=O)NC2CCS(=O)(=O)C2)cc1C (configuration not stated)
EC50 [1]: > 120 µM (not active)
EC50 [2]: > 120 µM (not active)
EC50 (H4): > 120 µM (not active)

CCc1ccccc1NC(=O)CC(c1ccc(OC)cc1)n1cccc1 (configuration not stated)
EC50 [6]: > 260 µM (inactive)

C/C(=N\NC(=O)c1nnn(-c2nonc2N)c1CN1CCCCC1)c1ccccc1O
AC50 [7]: 3.42 µM (active)

CC(=O)c1cccc(N(CC(=O)Nc2ccc(F)cc2F)S(C)(=O)=O)c1
EC50 [6]: 176 µM (active)

Cc1cc(C)c2c(NC(=O)C3CC3)nn(C)c2n1
EC50 [6]: > 260 µM (inactive)

CC1(C)OC(C(O)(c2ccccc2)c2ccccc2)[C@@H](C(O)(c2ccccc2)c2ccccc2)O1 (some centres not stated)
EC50 [3]: 2.95 µM (active)
EC50 (Streptokinase A): 2.78 µM (active)
EC50 (Streptococcus): > 150 µM (not active)

COc1ccc(OCc2cc(C(=O)N(C)Cc3cc(C)no3)no2)c(Cl)c1
EC50 [1]: 1.42 µM (active)
EC50 [2]: 65.1 µM (active)
EC50 (H4): 10.1 µM (active)

CCCCCCNC(=O)CN=C(S)N(Cc1cccs1)C1CCCCC1
EC50 [6]: > 260 µM (inactive)

CCCC(C)c1nnc(NC(=O)COc2ccc3c(c2)OCO3)s1 (configuration not stated)
AC50 [7]: 5.69 µM (active)

Cc1ccc(/C=c2\s/c(=C(/C#N)C(=O)N3CCCC3)n(Cc3ccco3)c2=O)s1
EC50 [6]: 9.99 µM (active)

Brc1ccccc1-n1nnc(-c2cnc3ccccc3c2)n1
EC50 [6]: > 260 µM (inactive)

COc1cccc(-n2nnc3c(=O)n(Cc4ccccc4Cl)cnc32)c1
EC50 [3]: > 150 µM (not active)
EC50 [8]: > 195 µM (not active)
EC50 (Streptokinase A): > 150 µM (not active)
EC50 (Streptococcus): > 150 µM (not active)

CCC(C(=O)N1CCC(N2CCCCC2)CC1)n1nc(C)c2sc3ccccc3c2c1=O (configuration not stated)
EC50 [3]: > 150 µM (not active)
EC50 (Streptokinase A): > 150 µM (not active)
EC50 (Streptococcus): > 150 µM (not active)

O=c1cnc2cnc(N3CCNCC3)nc2n1CCc1ccccc1
AC50 (Cytochrome P450 2D6): 15.8 µM (inconclusive)
AC50 (Cytochrome P450 3A4): 15.8 µM (inconclusive)
AC50 (Cytochrome P450 2C9): 20 µM (inconclusive)

COc1ccccc1NC(=O)c1ccc(S(=O)(=O)N2CCCC(C)C2)cc1 (configuration not stated)
AC50 [7]: > 195 µM (inactive)

COc1cc(/C=N/Nc2ncnc3sc4c(c23)CCC4)ccc1O
EC50 [3]: 3.88 µM (active)
EC50 (Streptokinase A): 5.06 µM (active)
EC50 (Streptococcus): > 150 µM (not active)

Cc1ccc2nc(Nc3nc(O)cc(-c4ccccc4)n3)nc(C)c2c1
EC50 [3]: 2.94 µM (active)
EC50 (Streptococcus): 6.98 µM (active)

Cc1ccc(C(=O)CCC2CCCCC2=O)cc1 (configuration not stated)
EC50 [1]: 13.2 µM (active)
EC50 [2]: 36.7 µM (active)
EC50 (H4): 28.4 µM (active)

Cc1nn(C)c(C(=O)Nc2ccc(S(=O)(=O)NC34CC5CC(CC(C5)C3)C4)cc2)c1Br
EC50 [3]: 8.5 µM (active)
EC50 (Streptokinase A): 16.8 µM (active)
EC50 [4]: 2.79 µM (active)
EC50 [5]: > 60 µM (inconclusive)
EC50 (Streptococcus): 16.5 µM (active)

CCOC(=O)C1CCN(c2c(NCc3ccc(C(=O)NCCC(C)C)cc3)c(=O)c2=O)CC1
AC50 (Cytochrome P450 2D6): 0.398 µM (inconclusive)
AC50 (Cytochrome P450 3A4): 7.94 µM (inconclusive)
AC50 (Cytochrome P450 2C9): 7.94 µM (inconclusive)

Cc1ccc(-c2[nH]ncc2C(=O)c2ccc(Br)cc2)c(O)c1
EC50 [6]: > 260 µM (inactive)

CCOC(=O)Nc1ccc2c(c1)OCO2
AC50 (Cytochrome P450 2D6): 35.5 µM (inconclusive)
AC50 (Cytochrome P450 2C9): 39.8 µM (inconclusive)

Cc1ccccc1C(=O)ON=C(N)c1cccc([N+](=O)[O-])c1
EC50 [1]: 13.8 µM (active)
EC50 [2]: 17 µM (active)
EC50 (H4): 27.5 µM (active)

Cc1ccc2nc(Nc3nc(=O)cc(-c4ccccc4)[nH]3)nc(C)c2c1
EC50 (Streptokinase A): > 150 µM (not active)

O=C(O)C[S+]([O-])c1ccc2c3c(cccc13)C(=O)c1ccccc1-2 (configuration not stated)
AC50 (Cytochrome P450 3A4): 3.98 µM (inconclusive)
AC50 (Cytochrome P450 2C9): 6.31 µM (inconclusive)

Oc1ccc2ccccc2c1CN1CCN(c2ccccc2)CC1
EC50 [6]: 49.8 µM (active)

COc1cccc(-c2ccc(C#N)c(OC(=O)c3c(Cl)cccc3Cl)n2)c1
CC50 [9]: 28.1 µM (active)
AC50 [7]: 3.52 µM (active)

CCN1C(=O)/C(=C\N2CCN(c3cccc(Cl)c3)CC2)SC1=S
AC50 [7]: 1.77 µM (active)

Cn1c(=O)c(/C=C/c2ccc(F)cc2)nc2ccccc21
EC50 [6]: 36.5 µM (active)

CC1CCCC(N=C(S)Nc2ccc(SC(F)F)cc2)C1C (configuration not stated)
AC50 [7]: 5.61 µM (active)

CCOC(=O)CC1C(=O)NCCN1S(=O)(=O)c1cc(Cl)c(Cl)cc1Cl (configuration not stated)
EC50 [6]: > 260 µM (inactive)

Oc1ccc(Br)cc1-c1cc(-c2ccccc2)[nH]n1
AC50 [7]: 4.95 µM (active)

C=CCn1c(O)cc(=O)nc1SC(C)CC (configuration not stated)
EC50 [3]: 21.3 µM (active)
EC50 (Streptokinase A): > 150 µM (not active)
EC50 (Streptococcus): > 150 µM (not active)

COc1ccc(/C=N/N(c2ccccc2)c2ccccc2)cc1O
AC50 [7]: 6.76 µM (active)

Reference: ChEMBL document CHEMBL1201862, “PubChem BioAssay data set” (2004)
